Tests used:
Format in all cases: in vivo, human
men and women with OAB = experiment: Phase 2b study of vibegron in OAB, Part 1, efficacy at Week 8 (voiding diary); conditions: tolterodine ER 4 mg
From the text: Part 2 was designed to continue to assess the safety and efficacy of concomitant dosing. […] Subjects in both Part 1 and Part 2 had the option of enrolling in a 1-year extension. Participants were required to keep a voiding diary, recording the occurrence of each strong urge, total incontinence, and urge incontinence episode. Efficacy data for Part 1 and Part 2 are summarized herein.
The total number of urgency incontinence episodes must have exceeded the total number of stress incontinence episodes for all subjects.

[1] = Phase 2b study, vital sign (HR, SBP, DBP) changes and orthostatic AEs; conditions: tolterodine 4 mg
From the text: None led to discontinuation. The overall incidence of orthostatic symptoms was low.
Small differences in the percent of subjects exceeding categorical heart rate and blood pressure thresholds for vibegron were similar to those in the tolterodine arm.

[2] = system: men and women with overactive bladder; experiment: 40-week extension study (52 weeks), efficacy; conditions: for UUI Episodes 75% Responders at Week 52 / UUI Episodes 100% Responders at Week 52 / Urgency Episodes 50% Responders at Week 52: multiple imputation
From the text: All CFB calculations used the parent study Baseline value.

[3] = Phase 3 study (75 mg), adverse events
Procedure: Study assessments of safety included adverse events, physical examinations, vital signs (and weight), and clinical laboratory tests
An adverse event is any untoward medical occurrence in a patient or clinical investigation patient, temporally associated with the use of a medicinal product, whether or not considered related to the medicinal product.
Adverse Events of Clinical Interest for this study included:
Safety analyses were conducted using the SAF and summarized by treatment group as treated. The treatment-emergent period is defined as the period of time from the first dose date of the double blinded Study Treatment through 28 days after the last dose of Study Treatment, or the date of initiation of another investigational agent or surgical intervention or rollover to the extension study, whichever occurs first. Safety was assessed through summaries of adverse events, the frequency of treatment discontinuations due to adverse events, and clinical laboratory evaluations.

[4] = 40-Week treatment group, Full Analysis Set Extension
[5] = 52-Week treatment group, Full Analysis Set Extension

Compound: Cc1ccc(O)c([C@H](CCN(C(C)C)C(C)C)c2ccccc2)c1 [Tolterodine ER, tolterodine, reference compound]
- Change from baseline in volume voided per micturition at Week 8, difference from placebo in LS means (men and women with OAB): 30.77 mL
- Micturitions: adjusted difference from placebo at Week 8, difference in LS means (MMRM) (men and women with OAB): −0.6
- Micturitions: change from baseline at Week 8, mean (men and women with OAB): −1.73
- Micturitions: daily number of events, Week 8 mean (men and women with OAB): 9.24
- Micturitions: difference from placebo at Week 8, difference in LS means (cLDA) (men and women with OAB): −0.54
- Urgency episodes: adjusted difference from placebo at Week 8, difference in LS means (MMRM) (men and women with OAB): −1.0
- Urgency episodes: change from baseline at Week 8, mean (men and women with OAB): −2.52
- Urgency episodes: daily number of events, Week 8 mean (men and women with OAB): 3.91
- Urgency episodes: difference from placebo at Week 8, difference in LS means (cLDA) (men and women with OAB): −0.94
- Total incontinence episodes: adjusted difference from placebo at Week 8, difference in LS means (MMRM) (men and women with OAB; OAB Wet subjects): −0.3
- Total incontinence episodes: change from baseline at Week 8, mean (men and women with OAB; OAB Wet subjects): −1.80
- Total incontinence episodes: daily number of events, Week 8 mean (men and women with OAB; OAB Wet subjects): 1.32
- Total incontinence episodes: difference from placebo at Week 8, difference in LS means (cLDA) (men and women with OAB; OAB Wet subjects): −0.34
- Urgency incontinence episodes: adjusted difference from placebo at Week 8, difference in LS means (MMRM) (men and women with OAB; OAB Wet subjects): −0.4
- Urgency incontinence episodes: change from baseline at Week 8, mean (men and women with OAB; OAB Wet subjects): −1.67
- Urgency incontinence episodes: daily number of events, Week 8 mean (men and women with OAB; OAB Wet subjects): 1.15
- Urgency incontinence episodes: difference from placebo at Week 8, difference in LS means (cLDA) (men and women with OAB; OAB Wet subjects): −0.46
- DBP change from baseline, mean (95% CI) maximum, week 1 to 8 [1]: 5.19 (4.26, 6.13) mm Hg
- DBP change from baseline, mean (95% CI), week 1 [1]: −0.12 (−1.10, 0.86) mm Hg
- HR change from baseline, mean (95% CI) maximum, week 1 to 8 [1]: 5.66 (4.69, 6.63) bpm
- HR change from baseline, mean (95% CI), week 1 [1]: 0.68 (−0.31, 1.67) bpm
- SBP change from baseline, mean (95% CI) maximum, week 1 to 8 [1]: 7.29 (6.01, 8.57) mm Hg
- SBP change from baseline, mean (95% CI), week 1 [1]: 0.04 (−1.36, 1.43) mm Hg
- Micturitions, Change from Baseline at Week 52, Mean ([2]; 40-Week arm): −2.6
- UUI Episodes, Change from Baseline at Week 52, Mean ([2]; 40-Week arm): −1.5
- UUI Episodes, Week 52 Mean ([2]; 40-Week arm): 1.1
- Urgency Episodes, Change from Baseline at Week 52, Mean ([2]; 40-Week arm): −3.5
- Urgency Episodes, Week 52 Mean ([2]; 40-Week arm): 3.9
- Micturitions, Week 52 Mean ([2]; 40-Week arm, Full Analysis Set Extension): 8.8
- Total urinary incontinence episodes, Change from Baseline Mean at Week 52 [2, 4]: −1.9
- Total urinary incontinence episodes, Week 52 Mean [2, 4]: 1.2
- UUI Episodes 75% Responders at Week 52 ([2]; 40-Week treatment group): 54.0%
- UUI Episodes 100% Responders at Week 52 ([2]; 40-Week treatment group): 37.8%
- Urgency Episodes 50% Responders at Week 52 ([2]; 40-Week treatment group): 50.1%
- Micturitions, Change from Baseline at Week 52, Mean ([2]; 52-Week arm): −2.3
- UUI Episodes, Change from Baseline at Week 52, Mean ([2]; 52-Week arm): −1.7
- UUI Episodes, Week 52 Mean ([2]; 52-Week arm): 1.4
- Urgency Episodes, Change from Baseline at Week 52, Mean ([2]; 52-Week arm): −3.5
- Urgency Episodes, Week 52 Mean ([2]; 52-Week arm): 4.7
- Micturitions, Week 52 Mean ([2]; 52-Week arm, Full Analysis Set Extension): 9.0
- Total urinary incontinence episodes, Change from Baseline Mean at Week 52 [2, 5]: −2.0
- Total urinary incontinence episodes, Week 52 Mean [2, 5]: 1.7
- UUI Episodes 75% Responders at Week 52 ([2]; 52-Week treatment group): 54.4%
- UUI Episodes 100% Responders at Week 52 ([2]; 52-Week treatment group): 34.2%
- Urgency Episodes 50% Responders at Week 52 ([2]; 52-Week treatment group): 51.0%
- UUI Episodes, Change from Baseline LS Mean (SE) at Week 52 ([2]; 52-Weeks arm, Full Analysis Set Extension for Incontinence): −1.7 (0.17)
- Micturitions, Change from Baseline LS Mean (SE) at Week 52 ([2]; 52-Weeks arm, mixed model for repeated measures): −2.0 (0.26)
- Urgency episodes, Change from Baseline LS Mean (SE) at Week 52 ([2]; 52-Weeks treatment, Full Analysis Set Extension): −3.2 (0.37)
- Total urinary incontinence episodes, Change from Baseline LS Mean (SE) at Week 52 ([2]; 52-Weeks treatment, Full Analysis Set Extension for Incontinence): −1.9 (0.19)
- % Responders, 50% Reduction in Total Inc at Week 52 ([2]; 52-week treatment, Table 97): 62%
- % Responders, 50% Reduction in UE at Week 52 ([2]; 52-week treatment, Table 97): 51%
- % Responders, 75% Reduction in UUI at Week 52 ([2]; 52-week treatment, Table 97): 54%
- % Responders, 100% Reduction in UUI at Week 52 ([2]; 52-week treatment, Table 97): 34%
- Micturitions, Least Squares Means CFB at Week 52 ([2]; 52-week treatment, Table 97): −2.0
- Total Incontinence Episodes, Least Squares Means CFB at Week 52 ([2]; 52-week treatment, Table 97): −1.9
- UUI Episodes, Least Squares Means CFB at Week 52 ([2]; 52-week treatment, Table 97): −1.7
- Urgency Episodes (UE), Least Squares Means CFB at Week 52 ([2]; 52-week treatment, Table 97): −3.2
- Volume Voided, mean change from baseline at Week 52 ([2]; 52-week treatment, Table 97): 9 mL
- AE: ALT increase ([3]; 12-week study): 1 (0.2) n (%)
- AE: AST increase ([3]; 12-week study): 1 (0.2) n (%)
- AE: Atrial fibrillation ([3]; 12-week study): 1 (0.2) n (%)
- AE: Bilirubin increased ([3]; 12-week study): 1 (0.2) n (%)
- AE: Blood creatinine increased ([3]; 12-week study): 1 (0.2) n (%)
- AE: Blood pressure diastolic increased ([3]; 12-week study): 1 (0.2%) n (%)
- AE: Blood pressure increased ([3]; 12-week study): 8 (1.9) n (%)
- AE: Cardiac failure congestive ([3]; 12-week study): 0 n (%)
- AE: Cerebrovascular accident ([3]; 12-week study): 1 (0.2) n (%)
- AE: Chest discomfort ([3]; 12-week study): 0 n (%)
- AE: Chest pain ([3]; 12-week study): 0 n (%)
- AE: Chronic kidney disease ([3]; 12-week study): 0 n (%)
- AE: Constipation ([3]; 12-week study): 6 (1.4) n (%)
- AE: Cystitis ([3]; 12-week study): 1 (0.2) n (%)
- AE: Diarrhea ([3]; 12-week study): 9 (2.1) n (%)
- AE: Dizziness ([3]; 12-week study): 4 (0.9) n (%)
- AE: Drug hypersensitivity ([3]; 12-week study): 0 n (%)
- AE: Dry mouth ([3]; 12-week study): 28 (6.5) n (%)
- AE: Dysuria ([3]; 12-week study): 0 n (%)
- AE: Escherichia urinary-tract infection ([3]; 12-week study): 1 (0.2%) n (%)
- AE: Fatigue ([3]; 12-week study): 6 (1.4) n (%)
- AE: Glomerular filtration rate decreased ([3]; 12-week study): 2 (0.5) n (%)
- AE: Headache ([3]; 12-week study): 11 (2.6) n (%)
- AE: Hepatic enzyme increased ([3]; 12-week study): 1 (0.2) n (%)
- AE: Hot flush ([3]; 12-week study): 1 (0.2) n (%)
- AE: Hyperglycemia ([3]; 12-week study): 2 (0.5) n (%)
- AE: Hypertension ([3]; 12-week study): 11 (2.6) n (%)
- AE: Hypotension ([3]; 12-week study): 1 (0.2) n (%)
- AE: Nasopharyngitis ([3]; 12-week study): 11 (2.6) n (%)
- AE: Nausea ([3]; 12-week study): 5 (1.2) n (%)
- AE: Pollakiuria ([3]; 12-week study): 0 n (%)
- AE: Positional vertigo ([3]; 12-week study): 1 (0.2) n (%)
- AE: Residual urine volume increased ([3]; 12-week study): 6 (1.4) n (%)
- AE: Somnolence ([3]; 12-week study): 2 (0.5) n (%)
- AE: Syncope ([3]; 12-week study): 1 (0.2) n (%)
- AE: Tachycardia ([3]; 12-week study): 1 (0.2) n (%)
- AE: Transaminases increased ([3]; 12-week study): 0 n (%)
- AE: Type 2 diabetes mellitus ([3]; 12-week study): 0 n (%)
- AE: Urinary retention ([3]; 12-week study): 3 (0.7) n (%)
- AE: Urinary tract infection ([3]; 12-week study): 25 (5.8) n (%)
- AE: Vertigo ([3]; 12-week study): 1 (0.2) n (%)
- AE: Back pain ([3]; patients ≥75 years): 2.1%
- AE: Diarrhea ([3]; patients ≥75 years): 4.2%
- AE: Dyspnea ([3]; patients ≥75 years): 0%
- AE: Nausea ([3]; patients ≥75 years): 0%
- AE: Rash ([3]; patients ≥75 years): 0%
- AE: Somnolence ([3]; patients ≥75 years): 2.1%
- AE: Upper respiratory tract infection ([3]; patients ≥75 years): 0%
- AE: Urinary retention ([3]; patients ≥75 years): 4.2%
- AE: Urinary tract infection ([3]; patients ≥75 years): 8.3%
- Overall AE rate ([3]; patients ≥75 years): 50.0%
- Any AE of clinical interest, % ([3]; safety population): (8.8%)
- Patients with at least one treatment emergent serious AEs, % ([3]; safety population): (2.3) %
- SAEs resulting in death, % ([3]; safety population): (0.2) %
- SAEs: Hospitalization, % ([3]; safety population): (1.9) %
- SAEs: other serious criteria, % ([3]; safety population): (0.5) %
- Patients with at least one treatment emergent adverse events, % ([3]; safety population, 12-week study): (38.6) %
- Tachycardia rate ([3]; tolterodine ER 4 mg once daily, 12 weeks): 0.2%
- Patients with at least one Serious AE ([3]; vibegron 75 mg or tolterodine ER 4 mg once daily, 12 weeks): 2.3%
